From patent US8895769B2, “Silicon-containing carboxylic acid derivative” (Kemphys Ltd., priority 2011, dated 2014)

Target: T1, gabapentin receptor (Rattus norvegicus, UniProt P54290)
T1 construct: a gabapentin receptor was prepared from the brains of Wister rats; from tissue; host or cells: Wistar rat brain, prepared by the method of Suman-Chauhan et al. 1993
Assay: Binding to gabapentin receptor (inhibition of [3H]gabapentin binding)
Details: compound 1 μM; 0.02 μM [3H] gabapentin; receptor from brains of Wister rats
Method: According to the method of Suman-Chauhan et al. (Eur. J. Pharmacol, 244 (3), pp. 293-301, 1993), a gabapentin receptor was prepared from the brains of Wister rats. Binding of the following compounds (1 μM) to the gabapentin receptor was investigated on the basis of inhibition of binding of gabapentin in the presence of 0.02 μM [^3H] gabapentin. As a result, the following inhibition ratios were observed. • 4-Amino-3-(trimethylsilyl)butanoic acid: 35% • 4-Amino-3-(t-butyldimethylsilyl)butanoic acid: 13% • 4-Amino-3-(trimethylsilylmethyl)butanoic acid: 28% • 4-Amino-3-(dimethyl-n-octylsilyl)butanoic acid: 32%

T1 sequence (P54290 25-944 limits assumed): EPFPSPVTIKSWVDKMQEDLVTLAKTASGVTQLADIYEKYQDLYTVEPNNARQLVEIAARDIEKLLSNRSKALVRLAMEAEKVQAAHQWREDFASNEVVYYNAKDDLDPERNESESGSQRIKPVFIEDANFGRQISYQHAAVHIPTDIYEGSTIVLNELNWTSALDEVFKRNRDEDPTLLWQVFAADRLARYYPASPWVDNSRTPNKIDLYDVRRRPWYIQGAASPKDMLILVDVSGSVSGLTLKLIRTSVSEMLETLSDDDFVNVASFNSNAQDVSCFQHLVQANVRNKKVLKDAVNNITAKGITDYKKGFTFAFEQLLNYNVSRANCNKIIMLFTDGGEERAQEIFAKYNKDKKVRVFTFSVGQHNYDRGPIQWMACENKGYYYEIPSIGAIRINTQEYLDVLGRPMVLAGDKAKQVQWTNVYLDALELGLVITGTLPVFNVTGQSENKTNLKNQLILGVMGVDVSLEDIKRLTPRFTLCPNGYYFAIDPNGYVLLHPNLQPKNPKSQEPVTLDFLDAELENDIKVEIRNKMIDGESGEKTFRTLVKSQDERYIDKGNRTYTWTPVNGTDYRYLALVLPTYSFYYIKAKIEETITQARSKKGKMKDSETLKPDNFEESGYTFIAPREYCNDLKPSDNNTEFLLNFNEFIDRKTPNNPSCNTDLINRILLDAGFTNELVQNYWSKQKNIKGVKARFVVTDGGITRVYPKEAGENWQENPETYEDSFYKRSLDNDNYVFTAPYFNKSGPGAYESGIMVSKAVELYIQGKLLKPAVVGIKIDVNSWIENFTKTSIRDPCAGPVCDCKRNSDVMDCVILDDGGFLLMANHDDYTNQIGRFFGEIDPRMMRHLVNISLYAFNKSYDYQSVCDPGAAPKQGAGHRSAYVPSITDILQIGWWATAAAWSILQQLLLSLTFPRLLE
T1 sequence (P54290 945-1091 limits assumed): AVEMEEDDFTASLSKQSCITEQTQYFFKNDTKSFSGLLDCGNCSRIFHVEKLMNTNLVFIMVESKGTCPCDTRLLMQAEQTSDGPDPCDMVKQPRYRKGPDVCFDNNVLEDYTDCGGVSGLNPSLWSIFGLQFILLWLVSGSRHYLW

Going from CCCCCCCC[Si](C)(C)C(CN)CC(=O)O (stereo not drawn) [4-amino-3-(dimethyl-n-octylsilyl)butanoic acid] to C[Si](C)(C)C(CN)CC(=O)O (stereo not drawn) [Compound A, 4-amino-3-(trimethylsilyl)butanoic acid], the “inhibition ratio (inhibition of binding of gabapentin)” value rises from 32% to 35%.

Going from CC(C)(C)[Si](C)(C)C(CN)CC(=O)O (stereo not drawn) [4-amino-3-(tert-butyldimethylsilyl)butanoic acid] to C[Si](C)(C)CC(CN)CC(=O)O (stereo not drawn) [Compound B, 4-amino-3-(trimethylsilylmethyl)butanoic acid], the “inhibition ratio (inhibition of binding of gabapentin)” value rises from 13% to 28%.

System: rat Chung model
Assay: Analgesic action test using Chung model
Type: in vivo
Details: 10 mg/kg, single oral administration, 30 minutes after, physical stimulation, N=6
Method: A rat Chung model was used. 4-Amino-3-(trimethylsilyl)butanoic acid (Compound A), 4-amino-3-(trimethylsilylmethyl)butanoic acid (Compound B), 4-amino-3-[(1-methyl-1-silacyclopentan-1-yl)methyl]butanoic acid (Compound C), 4-(1-methyl-1-silacyclohexan-1-yl)-3-cyanobutanoic acid (Compound D), and pregabalin (positive control, Compound E) were each orally administered once to the rats, and analgesic action was examined 30 minutes thereafter on the basis of pain threshold values obtained with a physical stimulation (total number of groups: 11, N=6). As a result, the pain threshold values (g) of the agent-administered groups and the control group were as follows. • Control (0.5% MC): 5.3±0.4 • Compound A: 7.8±0.5 (60 mg/kg), 6.2±0.4 (20 mg/kg) • Compound B: 7.9±0.4 (60 mg/kg), 5.4±0.2 (20 mg/kg) • Compound C: 8.8±0.3 (60 mg/kg), 5.7±0.6 (20 mg/kg) • Compound D: 7.3±0.5 (60 mg/kg), 4.8±0.2 (20 mg/kg) • Compound E: 8.3±0.2 (30 mg/kg), 6.3±0.3 (10 mg/kg)

With CC(C)C[C@H](CN)CC(=O)O [Compound E, (S)-3-(aminomethyl)-5-methylhexanoic acid, reference compound] the pain threshold value was 6.3 ± 0.3 g.

Same assay, conditions: 20 mg/kg, single oral administration, 30 minutes after, physical stimulation, N=6

First: C[Si](C)(C)C(CN)CC(=O)O (stereo not drawn) [Compound A, 4-amino-3-(trimethylsilyl)butanoic acid]
Second: C[Si](C)(C)CC(CN)CC(=O)O (stereo not drawn) [Compound B, 4-amino-3-(trimethylsilylmethyl)butanoic acid]
The pain threshold value of the first is higher: 6.2 ± 0.4 g for the first, 5.4 ± 0.2 g for the second.

First: C[Si]1(CC(CN)CC(=O)O)CCCC1 (stereo not drawn) [Compound C, 4-amino-3-[(1-methyl-1-silacyclopentan-1-yl)methyl]butanoic acid]
Second: C[Si]1(CC(C#N)CC(=O)O)CCCCC1 (stereo not drawn) [Compound D, 4-(1-methyl-1-silacyclohexan-1-yl)-3-cyanobutanoic acid]
The pain threshold value of the first is higher: 5.7 ± 0.6 g for the first, 4.8 ± 0.2 g for the second.

Same assay, conditions: 30 mg/kg, single oral administration, 30 minutes after, physical stimulation, N=6

In the case of CC(C)C[C@H](CN)CC(=O)O [Compound E, (S)-3-(aminomethyl)-5-methylhexanoic acid, reference compound], the pain threshold value was 8.3 ± 0.2 g.

Same assay, conditions: 60 mg/kg, single oral administration, 30 minutes after, physical stimulation, N=6

C[Si](C)(C)C(CN)CC(=O)O (stereo not drawn) [Compound A, 4-amino-3-(trimethylsilyl)butanoic acid] and C[Si](C)(C)CC(CN)CC(=O)O (stereo not drawn) [Compound B, 4-amino-3-(trimethylsilylmethyl)butanoic acid] are within error of each other in pain threshold value: 7.8 ± 0.5 g for the first, 7.9 ± 0.4 g for the second.

First: C[Si]1(CC(CN)CC(=O)O)CCCC1 (stereo not drawn) [Compound C, 4-amino-3-[(1-methyl-1-silacyclopentan-1-yl)methyl]butanoic acid]
Second: C[Si]1(CC(C#N)CC(=O)O)CCCCC1 (stereo not drawn) [Compound D, 4-(1-methyl-1-silacyclohexan-1-yl)-3-cyanobutanoic acid]
The pain threshold value of the first is higher: 8.8 ± 0.3 g for the first, 7.3 ± 0.5 g for the second.

System: not given
Assay: not given
Details: not given

First: C[Si]1(C(CN)CC(=O)O)CCCCC1 (stereo not drawn)
Second: C[Si]1(CC(CN)CC(=O)O)CCCCC1 (stereo not drawn)
The melting point of the first is higher: 160 to 161.5 °C for the first, 140.5 to 143 °C for the second.

First: C[Si](C)(C)C(CN)CC(=O)O (stereo not drawn) [Compound A, 4-amino-3-(trimethylsilyl)butanoic acid]
Second: C[Si]1(CC(CN)CC(=O)O)CCCC1 (stereo not drawn) [Compound C, 4-amino-3-[(1-methyl-1-silacyclopentan-1-yl)methyl]butanoic acid]
The melting point of the first is higher: 199 to 201 °C for the first, 133 to 135 °C for the second.
